Measurements: US20220400680A1, “USE OF ACYLCYANAMIDES OR SALTS THEREOF FOR REGULATING PLANT GROWTH” (Alzchem Trostberg GmbH, priority 2019, published 2022)

Experiments:
[1] = tested on: Table apple, type Zabergäu-Renette (C2); test: Greenhouse test, cut apple branches C2 dipped in test solution, bud development stage; type: in vivo, Malus domestica; set-up: key to Bud development stage, apple branches C2: Stage 0: Buds unchanged; Stage 1: Buds slightly swollen, first green tips visible; Stage 2: strongly swollen, green buds; Stage 3: Buds before breaking open, leaf or flower root already visible; Stage 4: Flower buds fully developed, but still closed, white petals already visible. In the case of the grapevine, stage 4 was the unfolding of the first leaves; Stage 5: Flowers fully open or, in the case of grapevine, unfolding of the flower roots (“Gescheine”) on the fully leafed sprouts
Description: Greenhouse tests were conducted using cut fruit tree branches placed in water jars and maintained under controlled conditions with temperature regulation at approximately 22° C. and natural lighting. C2: Table Apple, Type […] Table apple: Malus domestica type […] first developed in 1885 as a chance seedling in Hausen a.d. Zaber/Baden-Württemberg and initially grown as 'Hausener Graue […]'. No defined storage type; requires heavy soils (loam). Tree growth initially strong with oblique upright leading branches, later medium with flat branches. Crown broad and flat-spherical with flat fruiting wood. Leaves large, broad oval and with clearly separated tip. Triploid type with late and long-lasting flowering. Yield starting early, medium high and somewhat alternate. […] The test solutions were prepared directly, i.e. without intermediate preparation of a concentrate. For each of the test substances A-1 to A-13, an aqueous solution of 0.15 mol of the test substance and 0.15 g BreakThru® OE-446 was prepared and filled up to a total of 500 g with water. Of bis-cyanamides A-14 and A-15, 0.075 mol each was filled up to 500 g in an analogous manner. These test solutions (in combination with the above 4 species/types Cx) were given the test numbers Cx-A1 to Cx-A15. […] This was done with the following evaluation scale: • Stage 0: […] Flower buds fully developed, but still closed, white petals already visible. […] Flowers fully open or, in the case of grapevine, unfolding of the flower roots (“[…]”) on the fully leafed sprouts.

[2] = tested on: Table cherry, type Burlat (C3); test: Greenhouse test, cut cherry branches C3 dipped in test solution, bud development stage; type: in vivo, Prunus avium; set-up: key to Bud development stage, cherry branches C3: Stage 0: Buds unchanged; Stage 1: Buds slightly swollen, first green tips visible; Stage 2: strongly swollen, green buds; Stage 3: Buds before breaking open, leaf or flower root already visible; Stage 4: Flower buds fully developed, but still closed, white petals already visible. In the case of the grapevine, stage 4 was the unfolding of the first leaves; Stage 5: Flowers fully open or, in the case of grapevine, unfolding of the flower roots (“Gescheine”) on the fully leafed sprouts; conditions: for Dormancy-breaking effect according to the definition, cherry C3: stage 4 reached or exceeded after 27 days vs negative control
Description: Greenhouse tests were conducted using cut fruit tree branches placed in water jars and maintained under controlled conditions with temperature regulation at approximately 22° C. and natural lighting. C3: Table Cherry, Type Burlat Table cherry: Prunus avium type Bigarreau Burlat or […] is a strong-growing somewhat sparse growing sweet cherry tree with horizontal side sprouts. The type has been known since 1930 and is one of the most important types in commercial cultivation. […] Medium but regular yields identify the type as a secondary type for early and dry areas. […] The test solutions were prepared directly, i.e. without intermediate preparation of a concentrate. For each of the test substances A-1 to A-13, an aqueous solution of 0.15 mol of the test substance and 0.15 g BreakThru® OE-446 was prepared and filled up to a total of 500 g with water. Of bis-cyanamides A-14 and A-15, 0.075 mol each was filled up to 500 g in an analogous manner. These test solutions (in combination with the above 4 species/types Cx) were given the test numbers Cx-A1 to Cx-A15. […] This was done with the following evaluation scale: • Stage 0: […] Flower buds fully developed, but still closed, white petals already visible. […] Flowers fully open or, in the case of grapevine, unfolding of the flower roots (“[…]”) on the fully leafed sprouts.

[3] = tested on: Table apple, type Boiken apple (C1); test: Greenhouse test, cut apple branches C1 dipped in test solution, bud development stage; type: in vivo, Malus domestica; set-up: key to Bud development stage, apple branches C1: Stage 0: Buds unchanged; Stage 1: Buds slightly swollen, first green tips visible; Stage 2: strongly swollen, green buds; Stage 3: Buds before breaking open, leaf or flower root already visible; Stage 4: Flower buds fully developed, but still closed, white petals already visible. In the case of the grapevine, stage 4 was the unfolding of the first leaves; Stage 5: Flowers fully open or, in the case of grapevine, unfolding of the flower roots (“Gescheine”) on the fully leafed sprouts; conditions: for Good to very good dormancy-breaking effect, apple C1: stage 4 reached or exceeded after 27 days vs negative control; for Dormancy-breaking effect according to the definition, apple C1: stage 4 reached or exceeded after 36 days vs negative control
Description: Greenhouse tests were conducted using cut fruit tree branches placed in water jars and maintained under controlled conditions with temperature regulation at approximately 22° C. and natural lighting. C1: Table Apple, Type Boiken Apple Table apple: Malus domestica type Boiken first described in 1828 in Bremen after Deichvogt Boiken. Apple type for rough locations and for almost every soil suitable scattered fruit type, whereby heavy soils and not too warm locations are required. Tree growth initially strong, later medium. Older crowns become broadly spherical and are loosely branched. Flowering starting medium-late and long lasting, petals large with little pink. Yield starting late (October) and irregular; with long shelf life and pressure resistance. […] The test solutions were prepared directly, i.e. without intermediate preparation of a concentrate. For each of the test substances A-1 to A-13, an aqueous solution of 0.15 mol of the test substance and 0.15 g BreakThru® OE-446 was prepared and filled up to a total of 500 g with water. Of bis-cyanamides A-14 and A-15, 0.075 mol each was filled up to 500 g in an analogous manner. These test solutions (in combination with the above 4 species/types Cx) were given the test numbers Cx-A1 to Cx-A15. […] This was done with the following evaluation scale: • Stage 0: […] Flower buds fully developed, but still closed, white petals already visible. […] Flowers fully open or, in the case of grapevine, unfolding of the flower roots (“[…]”) on the fully leafed sprouts.

[4] = tested on: Grape, type Pinot Noir (C4); test: Greenhouse test, cut wine sprouts C4 dipped in test solution, bud development stage; type: in vivo, Vitis vinifera subsp. vinifera; set-up: key to Bud development stage, wine sprouts C4: Stage 0: Buds unchanged; Stage 1: Buds slightly swollen, first green tips visible; Stage 2: strongly swollen, green buds; Stage 3: Buds before breaking open, leaf or flower root already visible; Stage 4: Flower buds fully developed, but still closed, white petals already visible. In the case of the grapevine, stage 4 was the unfolding of the first leaves; Stage 5: Flowers fully open or, in the case of grapevine, unfolding of the flower roots (“Gescheine”) on the fully leafed sprouts; conditions: for Dormancy-breaking effect according to the definition, wine C4: stage 4 reached or exceeded after 36 days vs negative control
Description: Greenhouse tests were conducted using cut fruit tree branches placed in water jars and maintained under controlled conditions with temperature regulation at approximately 22° C. and natural lighting. C4: Grape, Type Pinot Noir Grape: Vitis vinifera subsp. vinifera type Pinot Noir is an important and high quality red wine type that has existed for possibly 2000 years. It is cultivated all over the world because the type produces high quality red wines and has sufficient winter frost resistance. The type requires early and good areas with deep, warm, medium-heavy and fertile soils with good water supply. Pinot Noir produces regular, medium-high to high yields. However, there are a large number of clones that differ in yield, berry size and looseness. […] The test solutions were prepared directly, i.e. without intermediate preparation of a concentrate. For each of the test substances A-1 to A-13, an aqueous solution of 0.15 mol of the test substance and 0.15 g BreakThru® OE-446 was prepared and filled up to a total of 500 g with water. Of bis-cyanamides A-14 and A-15, 0.075 mol each was filled up to 500 g in an analogous manner. These test solutions (in combination with the above 4 species/types Cx) were given the test numbers Cx-A1 to Cx-A15. […] This was done with the following evaluation scale: • Stage 0: […] Flower buds fully developed, but still closed, white petals already visible. […] Flowers fully open or, in the case of grapevine, unfolding of the flower roots (“[…]”) on the fully leafed sprouts.

[5] = T1 (14 d), 0.15 mol (A-14, A-15: 0.075 mol) per 500 g solution

Structure (SMILES)	Bud development stage, apple branches C2 [1, 5]	Bud development stage, apple branches C2 ([1]; T2 (16 d))	Bud development stage, apple branches C2 ([1]; T3 (21 d))	Bud development stage, apple branches C2 ([1]; T4 (27 d))	Bud development stage, apple branches C2 ([1]; T5 (36 d))	Bud development stage, apple branches C2 ([1]; T6 (56 d))	Bud development stage, cherry branches C3 [2, 5]	Bud development stage, cherry branches C3 ([2]; T2 (16 d))	Bud development stage, cherry branches C3 ([2]; T3 (21 d))	Bud development stage, cherry branches C3 ([2]; T4 (27 d))	Bud development stage, cherry branches C3 ([2]; T5 (36 d))	Bud development stage, cherry branches C3 ([2]; T6 (56 d))	Bud development stage, apple branches C1 [3, 5]	Bud development stage, apple branches C1 ([3]; T2 (16 d))	Bud development stage, apple branches C1 ([3]; T3 (21 d))	Bud development stage, apple branches C1 ([3]; T4 (27 d))	Bud development stage, apple branches C1 ([3]; T5 (36 d))	Bud development stage, apple branches C1 ([3]; T6 (56 d))	Bud development stage, wine sprouts C4 [4, 5]	Bud development stage, wine sprouts C4 ([4]; T2 (16 d))	further results
CCCC(=O)NC#N.[Na] [Example A-6, Sodium butyryl cyanamide]	0	0	1	2	5	5	1	1	3	5	5	5	2	3	4	5	5	5	0	0	Dormancy-breaking effect according to the definition, apple C2 ([1]; stage 4 reached or exceeded after 36 days vs negative control): dormancy-breaking effect; Dormancy-breaking effect according to the definition, cherry C3 [2]: dormancy-breaking effect; Good to very good dormancy-breaking effect, apple C1 [3]: good to very good dormancy-breaking effect; Dormancy-breaking effect according to the definition, apple C1 [3]: dormancy-breaking effect; Bud development stage, wine sprouts C4 ([4]; T3 (21 d)): 0; Bud development stage, wine sprouts C4 ([4]; T4 (27 d)): 1; Bud development stage, wine sprouts C4 ([4]; T5 (36 d)): 2; Bud development stage, wine sprouts C4 ([4]; T6 (56 d)): 5
N#CNC(=O)c1ccccc1.[Na] [Example A-4, Sodium benzoyl cyanamide]	0	0	0	1	2	2	1	2	4	4	5	5	1	1	1	2	3	4	0	0	Good to very good dormancy-breaking effect, cherry C3 ([2]; stage 4 reached or exceeded after 21 days vs negative control): good to very good dormancy-breaking effect; Dormancy-breaking effect according to the definition, cherry C3 [2]: dormancy-breaking effect; Bud development stage, wine sprouts C4 ([4]; T3 (21 d)): 0; Bud development stage, wine sprouts C4 ([4]; T4 (27 d)): 3; Bud development stage, wine sprouts C4 ([4]; T5 (36 d)): 5; Bud development stage, wine sprouts C4 ([4]; T6 (56 d)): 5; Dormancy-breaking effect according to the definition, wine C4 [4]: dormancy-breaking effect
CC(C)(C)C(=O)NC#N.[Na] [Example A-8, Sodium pivaloyl cyanamide]	0	0	0	1	2	4	0	0	1	2	4	5	0	0	2	4	4	4	0	0	Good to very good dormancy-breaking effect, apple C1 [3]: good to very good dormancy-breaking effect; Dormancy-breaking effect according to the definition, apple C1 [3]: dormancy-breaking effect; Bud development stage, wine sprouts C4 ([4]; T3 (21 d)): 0; Bud development stage, wine sprouts C4 ([4]; T4 (27 d)): 1; Bud development stage, wine sprouts C4 ([4]; T5 (36 d)): 4; Bud development stage, wine sprouts C4 ([4]; T6 (56 d)): 5; Dormancy-breaking effect according to the definition, wine C4 [4]: dormancy-breaking effect
N#CN [cyanamide]	0	0	3	4	5	5	2	4	5	5	5	5	3	4	5	5	5	5	0	0	Bud development stage, wine sprouts C4 ([4]; T3 (21 d)): 2; Bud development stage, wine sprouts C4 ([4]; T4 (27 d)): 5; Bud development stage, wine sprouts C4 ([4]; T5 (36 d)): 5; Bud development stage, wine sprouts C4 ([4]; T6 (56 d)): 5
